This note sets out measurements from US11076595B2, “1-(n,n-disubstituted carbamoyl) 4-(substituted sulfonyl)triazolin-5-one derivative, 4-(n,n-disubstituted carbamoyl) 1-(substituted sulfonyl)triazolin-5-one derivative, and herbicide containing said derivative as active ingredient” (HOKKO CHEMICAL INDUSTRY CO., LTD., priority 2017, dated 2021).

Holding throughout (type): in vivo
The subject of assay [1] is Echinochloa crus-galli. The assay is described as follows: Test Example 14: herbicidal effect test by foliage treatment in upland field. Particulars: 7 days after sowing, 120 g/10a, 14 days after treatment. As to the method:
(§1) This test was performed with two replications per one formulation concentration plot, and 14 days after the formulation treatments, the weed suppression rate (%) was determined according to the following equation (Math. 2). Weed suppression rate (%)=(1−average dry weight (g) of plants in treated plots/average dry weight (g) of plants in untreated plots)×100 [Math. 2]
(§2) A pot having a size of 36 cm^2 was filled with field soil (alluvial soil) and after uniformly mixing the soil of the surface layer of 1 cm with 20 grains of each weed seed of crabgrass, Echinochloa crus-galli, Chenopodium album and Amaranthus viridis, the surface layer was pressed lightly. Seven Days after the sowing, an emulsifiable concentrate prepared according to Formulation Example 15 by using the compound shown in Table 12 below was diluted with water, and the water-diluted formulation was sprayed on the soil surface at a ratio of 100 liter per 10 are. The application rate of the active ingredient, by conversion, corresponded to 120 g per 10 are. Fourteen Days after the formulation treatment, the herbicidal effect was evaluated by the same criteria as in Test Example 11.

Another assay concerns Amaranthus viridis. The description is as above. Particulars: 7 days after sowing, 120 g/10a, 14 days after treatment. As to the method:
as §1, §2

Assay [2] relates to Lindernia pyxidaria. In words: Test Example 12: herbicidal effect test by treatment during growing period in paddy field. Particulars: 120 g/10a; treatment seven days after sowing in flooded paddy pot; assessed 14 days after treatment. The method in brief:
(§3)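 Read-out: weed suppression (%) = (1 − treated/untreated mean dry weight) × 100, scored 14 days after treatment with two replications. Pots held puddled paddy soil, 30 seeds per species sown 0–1 cm, flooded ~3 cm. Post-emergence dropwise water application at 7 days after sowing, 120 g a.i./10 are.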

The test system of assay [3] is Echinochloa crus-galli. Described as above. Conditions: 120 g/10a; treatment seven days after sowing in flooded paddy pot; assessed 14 days after treatment. The gist of the method:
as §3

Assay [4] has as its system Monochoria vaginalis. The description is as above. Conditions: 120 g/10a; treatment seven days after sowing in flooded paddy pot; assessed 14 days after treatment. The method in brief: as §3
Assay [5] has as its system Scirpus juncoides. The description is as above. Particulars: 120 g/10a; treatment seven days after sowing in flooded paddy pot; assessed 14 days after treatment. The method in brief:
as §3

The subject of another assay is crabgrass. In words: Test Example 14: herbicidal effect test by foliage treatment in upland field. Conditions: 7 days after sowing, 120 g/10a, 14 days after treatment. As for the experimental part:
as §2

The next assay has as its system Chenopodium album. The description is as above. Particulars: 7 days after sowing, 120 g/10a, 14 days after treatment. As for the experimental part: as §2
The test system of assay [6] is Lindernia pyxidaria. The assay is described as follows: Test Example 11: herbicidal effect test by soil treatment in paddy field. Particulars: 120 g/10a active ingredient, 14 days after treatment. The method in brief: (§4)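 Seeds were sown 0-1 cm deep in puddled, fertilised paddy soil in Wagner pots and kept under about 3 cm of flooding in a greenhouse. Diluted emulsifiable concentrate was added dropwise right after sowing at 120 g a.i. per 10 are. Suppression (%) came from dry weight versus untreated pots after 14 days, two replicates.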

Assay [7] relates to Echinochloa crus-galli. Described as above. Conditions: 120 g/10a active ingredient, 14 days after treatment. The method in brief:
as §4

Assay [8] has as its system Monochoria vaginalis. Described as above. Particulars: 120 g/10a active ingredient, 14 days after treatment. The gist of the method: as §4
In assay [9] the test system is Scirpus juncoides. The description is as above. Particulars: 120 g/10a active ingredient, 14 days after treatment. The gist of the method: as §4

With `Cc1ccc(S(=O)(=O)n2ncn(C(=O)N(c3c(F)cc(F)cc3F)C(C)C)c2=O)cc1` [Compound 11-641], in the assay with Echinochloa crus-galli [1], the “herbicidal effect, Echinochloa crus-galli” value amounted to 100%. For the same compound, the “herbicidal effect, Amaranthus viridis” value in the assay with Amaranthus viridis is 60%. Besides, the entries for the “Weed suppression rate (%) Lindemia pyxidaria” value in the assay on Lindernia pyxidaria [2] and with Lindernia pyxidaria [6] were 80% and 100%, respectively. Also, the “Weed suppression rate (%) Echinochloa crus-galli” value with Echinochloa crus-galli [3] and in the assay on Echinochloa crus-galli [7] was 100% each time. Further, the results for the “Weed suppression rate (%) Monochoria vaginalis” value with Monochoria vaginalis [4] and with Monochoria vaginalis [8] were 90% and 80%, respectively. For the same compound, the “Weed suppression rate (%) Scirpus juncoides” value in the assay on Scirpus juncoides [5] and in the assay with Scirpus juncoides [9] was 100% throughout. Further, the “herbicidal effect, Crabgrass” value with crabgrass came to 90%. For the same compound, in the assay on Chenopodium album, the “herbicidal effect, Chenopodium album” value is 70%.
As for `CC(C)N(C(=O)n1cnn(S(=O)(=O)c2ccc(C(C)(C)C)cc2)c1=O)c1c(F)cc(F)cc1F` [Compound 11-686], in the assay with Echinochloa crus-galli [1], the “herbicidal effect, Echinochloa crus-galli” value was determined as 90%. The “herbicidal effect, Amaranthus viridis” value in the assay with Amaranthus viridis is given as 30%. Moreover, the “Weed suppression rate (%) Lindemia pyxidaria” value in the assay with Lindernia pyxidaria [2] is 60%; in the assay on Lindernia pyxidaria [6], 100%. Further, the “Weed suppression rate (%) Echinochloa crus-galli” value with Echinochloa crus-galli [3] and in the assay with Echinochloa crus-galli [7] was 90% throughout. Moreover, the “Weed suppression rate (%) Monochoria vaginalis” value came out at 70% in the assay on Monochoria vaginalis [4] and 80% in the assay with Monochoria vaginalis [8]. Besides, the “Weed suppression rate (%) Scirpus juncoides” value in the assay with Scirpus juncoides [5] and in the assay with Scirpus juncoides [9] was 100% throughout. Moreover, the “herbicidal effect, Crabgrass” value with crabgrass turned out to be 90%. Moreover, the “herbicidal effect, Chenopodium album” value in the assay with Chenopodium album is listed as 60%.
In the case of `CC(C)N(C(=O)n1cnn(S(=O)(=O)c2c(F)c(F)c(F)c(F)c2F)c1=O)c1c(F)cc(F)cc1F` [Compound 11-815], the “herbicidal effect, Echinochloa crus-galli” value with Echinochloa crus-galli [1] came out at 70%. The “herbicidal effect, Amaranthus viridis” value with Amaranthus viridis stood at 70%. Moreover, the “Weed suppression rate (%) Lindemia pyxidaria” value in the assay with Lindernia pyxidaria [2] came to 80%; in the assay on Lindernia pyxidaria [6], 100%. Besides, the “Weed suppression rate (%) Echinochloa crus-galli” value in the assay with Echinochloa crus-galli [3] and in the assay with Echinochloa crus-galli [7] was 100% each time. Further, the “Weed suppression rate (%) Monochoria vaginalis” value in the assay with Monochoria vaginalis [4] is 70%; in the assay with Monochoria vaginalis [8], 80%. Moreover, the “Weed suppression rate (%) Scirpus juncoides” value in the assay with Scirpus juncoides [5] is on record as 70%; in the assay with Scirpus juncoides [9], 100%. For the same compound, the “herbicidal effect, Crabgrass” value in the assay on crabgrass worked out at 100%. In addition, the “herbicidal effect, Chenopodium album” value with Chenopodium album is on record as 80%.
Consider `CC(C)N(C(=O)n1cnn(S(=O)(=O)c2cccs2)c1=O)c1ccc(Br)cc1Cl` [Compound 11-1033], for which the “herbicidal effect, Echinochloa crus-galli” value in the assay with Echinochloa crus-galli [1] was determined as 90%. For the same compound, in the assay on Amaranthus viridis, the “herbicidal effect, Amaranthus viridis” value came to 60%. The “Weed suppression rate (%) Lindemia pyxidaria” value in the assay with Lindernia pyxidaria [2] and in the assay with Lindernia pyxidaria [6] was 100% each time. Also, the “Weed suppression rate (%) Echinochloa crus-galli” value in the assay with Echinochloa crus-galli [3] and in the assay with Echinochloa crus-galli [7] was 100% each time. For the same compound, the “Weed suppression rate (%) Monochoria vaginalis” value in the assay with Monochoria vaginalis [4] worked out at 100%; in the assay on Monochoria vaginalis [8] it was 90%. Moreover, the “Weed suppression rate (%) Scirpus juncoides” value in the assay on Scirpus juncoides [5] and with Scirpus juncoides [9] was 100% in each case. The “herbicidal effect, Crabgrass” value in the assay with crabgrass is reported as 90%. Also, in the assay with Chenopodium album, the “herbicidal effect, Chenopodium album” value came out at 60%.
With `CCN(CC)S(=O)(=O)n1ncn(C(=O)N(c2ccc(F)cc2F)C(C)C)c1=O` [Compound 11-1099], the “herbicidal effect, Echinochloa crus-galli” value in the assay with Echinochloa crus-galli [1] is 80%. Moreover, the “herbicidal effect, Amaranthus viridis” value with Amaranthus viridis is listed as 90%. Moreover, the “herbicidal effect, Crabgrass” value in the assay with crabgrass was 90%. Besides, the “herbicidal effect, Chenopodium album” value with Chenopodium album came out at 80%.
For `CC(C)N(C(=O)n1cnn(S(=O)(=O)C2CCCCC2)c1=O)c1ccc(C(F)(F)F)cc1F` [Compound 11-311], the “herbicidal effect, Echinochloa crus-galli” value in the assay with Echinochloa crus-galli [1] was found to be 90%. The “herbicidal effect, Amaranthus viridis” value in the assay with Amaranthus viridis was determined as 60%. The “herbicidal effect, Crabgrass” value with crabgrass is on record as 100%. Besides, the “herbicidal effect, Chenopodium album” value in the assay with Chenopodium album came out at 30%.
`CC(C)N(C(=O)n1cnn(S(=O)(=O)c2cccc(F)c2)c1=O)c1c(F)c(F)cc(F)c1F` [Compound 11-443]: the “Weed suppression rate (%) Lindemia pyxidaria” value in the assay on Lindernia pyxidaria [2] and in the assay on Lindernia pyxidaria [6] was 70% throughout. Further, the “Weed suppression rate (%) Echinochloa crus-galli” value in the assay on Echinochloa crus-galli [3] was 70%; in the assay on Echinochloa crus-galli [7], 80%. The “Weed suppression rate (%) Monochoria vaginalis” value in the assay with Monochoria vaginalis [4] and in the assay on Monochoria vaginalis [8] was 70% throughout. Moreover, the “Weed suppression rate (%) Scirpus juncoides” value in the assay on Scirpus juncoides [5] and in the assay with Scirpus juncoides [9] was 100% each time.
Take `Cc1cc(C)c(S(=O)(=O)n2ncn(C(=O)N(c3ccccc3F)C(C)C)c2=O)c(C)c1` [Compound 11-853]: the results for the “Weed suppression rate (%) Lindemia pyxidaria” value in the assay on Lindernia pyxidaria [2] and with Lindernia pyxidaria [6] were 80% and 90%, respectively. For the same compound, the “Weed suppression rate (%) Echinochloa crus-galli” value is 90% in the assay on Echinochloa crus-galli [3] and 100% in the assay on Echinochloa crus-galli [7]. The “Weed suppression rate (%) Monochoria vaginalis” value with Monochoria vaginalis [4] and in the assay on Monochoria vaginalis [8] was 80% in each case. The “Weed suppression rate (%) Scirpus juncoides” value in the assay with Scirpus juncoides [5] and with Scirpus juncoides [9] was 90% throughout.
With `Cc1ccc(S(=O)(=O)n2ncn(C(=O)N(c3cccc(F)c3)C(C)C)c2=O)cc1` [Compound 11-628], the “Weed suppression rate (%) Lindemia pyxidaria” value with Lindernia pyxidaria [2] and in the assay with Lindernia pyxidaria [6] was 80% in each case. For the same compound, the “Weed suppression rate (%) Echinochloa crus-galli” value in the assay on Echinochloa crus-galli [3] and in the assay with Echinochloa crus-galli [7] was 90% each time. In addition, the “Weed suppression rate (%) Monochoria vaginalis” value in the assay with Monochoria vaginalis [4] and with Monochoria vaginalis [8] was 80% throughout. Besides, the “Weed suppression rate (%) Scirpus juncoides” value with Scirpus juncoides [5] and with Scirpus juncoides [9] was 90% each time.
For the compound `CC(C)N(C(=O)n1cnn(S(=O)(=O)C2CC2)c1=O)c1ccc(Cl)cc1Br` [Compound 11-210], the “Weed suppression rate (%) Lindemia pyxidaria” value in the assay with Lindernia pyxidaria [2] stood at 80%; with Lindernia pyxidaria [6], 90%. The “Weed suppression rate (%) Echinochloa crus-galli” value with Echinochloa crus-galli [3] and in the assay with Echinochloa crus-galli [7] was 90% each time. In addition, the “Weed suppression rate (%) Monochoria vaginalis” value in the assay on Monochoria vaginalis [4] and in the assay on Monochoria vaginalis [8] was 80% in each case. The “Weed suppression rate (%) Scirpus juncoides” value in the assay with Scirpus juncoides [5] and with Scirpus juncoides [9] was 90% each time.
As to `CCS(=O)(=O)n1ncn(C(=O)N(C)c2ccc(F)cc2F)c1=O` [Compound 11-1126], the “Weed suppression rate (%) Lindemia pyxidaria” value amounted to 70% with Lindernia pyxidaria [2] and 90% with Lindernia pyxidaria [6]. For the same compound, the “Weed suppression rate (%) Echinochloa crus-galli” value in the assay on Echinochloa crus-galli [3] and with Echinochloa crus-galli [7] was 100% each time. The “Weed suppression rate (%) Monochoria vaginalis” value in the assay with Monochoria vaginalis [4] and with Monochoria vaginalis [8] was 70% throughout. Besides, the “Weed suppression rate (%) Scirpus juncoides” value in the assay with Scirpus juncoides [5] and in the assay on Scirpus juncoides [9] was 100% each time.
For `CC(C)N(C(=O)n1cnn(S(=O)(=O)c2c(F)cccc2F)c1=O)c1cccc(F)c1F` [Compound 11-772], the “Weed suppression rate (%) Lindemia pyxidaria” value came out at 70% with Lindernia pyxidaria [2] and 90% with Lindernia pyxidaria [6]. The “Weed suppression rate (%) Echinochloa crus-galli” value with Echinochloa crus-galli [3] and in the assay on Echinochloa crus-galli [7] was 100% each time. Moreover, the “Weed suppression rate (%) Monochoria vaginalis” value in the assay with Monochoria vaginalis [4] is 90%; in the assay on Monochoria vaginalis [8], 80%. The “Weed suppression rate (%) Scirpus juncoides” value is listed as 90% in the assay with Scirpus juncoides [5] and 80% in the assay with Scirpus juncoides [9].
As for `Cc1ccc(N(C(=O)n2cnn(S(=O)(=O)c3c(F)c(F)c(F)c(F)c3F)c2=O)C(C)C)c(F)c1` [Compound 11-825], the “Weed suppression rate (%) Lindemia pyxidaria” value in the assay with Lindernia pyxidaria [2] and with Lindernia pyxidaria [6] was 80% in each case. In addition, the “Weed suppression rate (%) Echinochloa crus-galli” value with Echinochloa crus-galli [3] and in the assay with Echinochloa crus-galli [7] was 90% each time. Also, the “Weed suppression rate (%) Monochoria vaginalis” value with Monochoria vaginalis [4] and with Monochoria vaginalis [8] was 80% in each case. The “Weed suppression rate (%) Scirpus juncoides” value in the assay on Scirpus juncoides [5] and in the assay on Scirpus juncoides [9] was 90% in each case.
For the compound `CC(C)N(C(=O)n1cnn(S(=O)(=O)c2ccccc2Cl)c1=O)c1ccc(Cl)cn1` [Compound 11-536], the “Weed suppression rate (%) Lindemia pyxidaria” value with Lindernia pyxidaria [2] is 80%; with Lindernia pyxidaria [6], 90%. The “Weed suppression rate (%) Echinochloa crus-galli” value with Echinochloa crus-galli [3] and with Echinochloa crus-galli [7] was 90% throughout. The “Weed suppression rate (%) Monochoria vaginalis” value in the assay on Monochoria vaginalis [4] and with Monochoria vaginalis [8] was 60% each time. Moreover, the “Weed suppression rate (%) Scirpus juncoides” value was 90% with Scirpus juncoides [5] and 60% with Scirpus juncoides [9].
